A word on the Ki: it is a dissociation constant, usually derived from enzyme kinetics or from competition with a known ligand.

The target in one assay is T1, hA1 AR (Homo sapiens, UniProt P30542).
T1 construct: expressed in transfected cells; host or cells: CHO cells (membranes)
T1 sequence (P30542 1-326): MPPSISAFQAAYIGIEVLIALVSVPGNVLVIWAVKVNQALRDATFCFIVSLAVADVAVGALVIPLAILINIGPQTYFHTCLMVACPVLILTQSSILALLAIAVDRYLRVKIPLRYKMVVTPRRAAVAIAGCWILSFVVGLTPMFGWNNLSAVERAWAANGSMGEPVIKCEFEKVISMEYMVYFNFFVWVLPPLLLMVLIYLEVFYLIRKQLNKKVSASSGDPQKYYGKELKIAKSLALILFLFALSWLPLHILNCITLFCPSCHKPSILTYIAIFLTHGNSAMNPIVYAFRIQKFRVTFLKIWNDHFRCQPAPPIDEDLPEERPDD
The assay can be described thus: [3H]DPCPX competition binding to hA1 CHO membranes. To be noted: for Ki: mean ± SEM of four assays, read-out: Binding experiments Ki hA1; for Binding experiments I% hA1: inhibition at 1 μM.

Another assay addresses T2, hA2A AR (Homo sapiens, UniProt P29274).
T2 construct: expressed in transfected cells; host or cells: CHO cells (membranes)
The assay can be described thus: [3H]ZM241385 competition binding to hA2A CHO membranes. To be noted: [3H]ZM241385, hA2A CHO; for Ki: mean ± SEM of four assays, read-out: Binding experiments Ki hA2A; for Binding experiments I% hA2A: inhibition at 1 μM.

The target of another assay is T3, hA3 AR (Homo sapiens, UniProt P0DMS8).
T3 construct: expressed in transfected cells; host or cells: CHO cells (membranes)
T3 sequence (P0DMS8 1-318): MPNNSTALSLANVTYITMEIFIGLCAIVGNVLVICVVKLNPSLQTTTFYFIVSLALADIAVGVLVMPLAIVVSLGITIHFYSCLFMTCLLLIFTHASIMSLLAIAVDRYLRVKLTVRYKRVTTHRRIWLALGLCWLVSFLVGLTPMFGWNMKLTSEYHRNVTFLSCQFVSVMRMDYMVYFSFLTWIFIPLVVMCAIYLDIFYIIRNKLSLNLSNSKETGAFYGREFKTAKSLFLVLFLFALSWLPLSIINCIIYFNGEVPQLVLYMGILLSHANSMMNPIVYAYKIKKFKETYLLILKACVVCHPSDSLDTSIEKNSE
The assay can be described thus: [125I]AB-MECA competition binding to hA3 CHO membranes. To be noted: for Ki: mean ± SEM of four assays, read-out: Binding experiments Ki hA3; for inhibition at 1 µM / inhibition: read-out: Binding experiments I% hA3, inhibition at 1 μM. As to the method: All synthesized compounds were tested to evaluate their affinity at human A1, A2A and A3 ARs. Displacement experiments of [^3H]DPCPX (1 nM) to hA1 CHO membranes (50 µg of protein/assay) and at least 6–8 different concentrations of antagonists for 120 min at 25 °C in 50 mM Tris-HCl buffer pH 7.4 were performed. Non-specific binding was determined in the presence 1 µM of DPCPX (≤10% of the total binding). […] Competition binding experiments to hA3 CHO membranes (50 µg of protein/assay) were performed incubating 0.5 nM [^125I]AB-MECA, 50 mM Tris-HCl buffer, 10 mM MgCl2, 1 mM EDTA, pH 7.4 and at least 6–8 different concentrations of examined ligands for 60 min at 37 °C[54]. Non-specific binding was defined as binding in the presence of 1 µM AB-MECA and was about 20% of total binding. Bound and free radioactivity were separated by filtering the assay mixture through Whatman GF/B glass fiber filters by using a Brandel cell harvester. The filter bound radioactivity was counted by Scintillation Counter Packard Tri Carb 2810 TR with an efficiency of 58%.
(§1) The protein concentration was determined according to a Bio-Rad method[56] with bovine albumin as a standard reference. Inhibitory binding constant (Ki) values were calculated from those of IC50 according to Cheng & Prusoff equation Ki = IC50/(1 + [C*]/KD*), where [C*] is the concentration of the radioligand and KD* its dissociation constant. A weighted non-linear least-squares curve fitting program LIGAND[58] was used for computer analysis of inhibition experiments. IC50 values obtained in cyclic AMP assay were calculated by non-linear regression analysis using the equation for a sigmoid concentration–response curve (Graph-PAD Prism, San Diego, CA).

Another assay addresses T4, hA2B AR (Homo sapiens, UniProt P29275).
T4 construct: expressed in transfected cells; host or cells: CHO cells
T4 sequence (P29275 1-332): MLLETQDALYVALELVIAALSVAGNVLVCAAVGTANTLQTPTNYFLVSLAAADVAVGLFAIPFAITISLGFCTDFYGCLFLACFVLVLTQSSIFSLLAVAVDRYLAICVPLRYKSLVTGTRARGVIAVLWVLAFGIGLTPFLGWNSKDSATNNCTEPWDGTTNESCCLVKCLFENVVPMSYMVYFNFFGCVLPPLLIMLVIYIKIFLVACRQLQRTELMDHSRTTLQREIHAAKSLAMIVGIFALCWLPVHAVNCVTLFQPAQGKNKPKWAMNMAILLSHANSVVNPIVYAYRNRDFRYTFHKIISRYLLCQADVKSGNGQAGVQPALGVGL
The assay can be described thus: cAMP assay in hA2B CHO cells stimulated by 200 nM NECA. In kind it is cell-based. The note with it: read-out: cAMP assays I% hA2B. The protocol: CHO cells transfected with hA2B AR subtypes were washed with phosphate-buffered saline, diluted trypsin and centrifuged for 10 min at 200 g. The cells (1 × 10^6 cells/assay) were suspended in 0.5 ml of incubation mixture (mM): NaCl 15, KCl 0.27, NaH2PO4 0.037, MgSO4 0.1, CaCl2 0.1, Hepes 0.01, MgCl2 1, glucose 0.5, pH 7.4 at 37 °C, 2 IU/ml adenosine deaminase and 4–(3-butoxy-4-methoxybenzyl)-2-imidazolidinone (Ro 20–1724) as phosphodiesterase inhibitor and preincubated for 10 min in a shaking bath at 37 °C. The potency of antagonists to the A2B AR was determined by the inhibition of NECA (200 nM)-induced cyclic AMP production. The reaction was terminated by the addition of cold 6% trichloroacetic acid (TCA). The TCA suspension was centrifuged at 2000 g for 10 min at 4 °C and the supernatant was extracted four times with water saturated diethyl ether. The final aqueous solution was tested for cyclic AMP levels by a competition protein binding assay. Samples of cyclic AMP standard (0–10 pmoles) were added to each test tube containing [^3H] cyclic AMP and incubation buffer (trizma base 0.1 M, aminophylline 8.0 mM, 2-mercaptoethanol 6.0 mM, pH 7.4). The binding protein prepared from beef adrenals was added to the samples previously incubated at 4 °C for 150 min, and, after the addition of charcoal, was centrifuged at 2000 g for 10 min. The clear supernatant was counted in a Scintillation Counter Packard Tri Carb 2810 TR with an efficiency of 58%.
as §1

T2 sequence (P29274 whole entry): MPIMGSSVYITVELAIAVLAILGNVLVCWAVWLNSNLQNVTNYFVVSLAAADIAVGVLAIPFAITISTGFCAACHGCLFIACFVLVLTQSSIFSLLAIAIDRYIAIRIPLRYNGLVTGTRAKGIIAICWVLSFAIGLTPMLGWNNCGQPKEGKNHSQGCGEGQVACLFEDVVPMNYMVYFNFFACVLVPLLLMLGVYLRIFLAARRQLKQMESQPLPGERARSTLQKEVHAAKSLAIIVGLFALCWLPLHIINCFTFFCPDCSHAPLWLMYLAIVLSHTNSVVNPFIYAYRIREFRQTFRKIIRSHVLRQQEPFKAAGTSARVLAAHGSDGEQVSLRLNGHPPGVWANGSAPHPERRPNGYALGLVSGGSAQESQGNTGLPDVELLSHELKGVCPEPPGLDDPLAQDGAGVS

Consider `Nc1nc(Nc2ccccc2)nc2cn(-c3ccccc3)nc12` [Compound 1, 7-Amino-5-phenylamino-2-phenyl-2H-pyrazolo[4,3-d]pyrimidine], for which the Ki on hA1 AR was 67 ± 5 nM; at hA2A AR, 412 ± 37 nM; on hA3 AR it was 13 ± 2 nM. Further, at hA2B AR, the inhibition at 1 µM came to 2%.
For `COc1ccc(Nc2nc(N)c3nn(-c4ccccc4)cc3n2)cc1` [Compound 2, 7-Amino-5-(4-methoxyphenyl)amino-2-phenyl-2H-pyrazolo[4,3-d]pyrimidine], on hA1 AR, the “Binding experiments I% hA1” value is recorded as 33%. Further, the “Binding experiments I% hA2A” value at hA2A AR is given as 8%. Besides, the Ki on hA3 AR was 27 ± 3 nM. In addition, the inhibition at 1 µM at hA2B AR came to 1%.
On the same counts, the results for `Nc1nc(Nc2ccc(Cl)cc2Cl)nc2cn(-c3ccccc3)nc12` [Compound 3, 7-Amino-5–(2,4-dichlorophenyl)amino-2-phenyl-2H-pyrazolo[4,3-d]pyrimidine] are 1%, 1%, 61 ± 8 nM and 2%.
Take `Nc1nc(Nc2ccc(O)cc2)nc2cn(-c3ccccc3)nc12` [Compound 4, 7-Amino-5-(4-hydroxyphenyl)amino-2-phenyl-2H-pyrazolo[4,3-d]pyrimidine]: the Ki on hA1 AR stood at 481 ± 42 nM. Further, the “Binding experiments I% hA2A” value on hA2A AR was determined as 40%. Moreover, the results for the inhibition at 1 µM at hA3 AR and at hA2B AR were 8% and 10%, respectively.
With `Nc1nc(NCc2ccccc2)nc2cn(-c3ccccc3)nc12` [Compound 5, 7-Amino-5-benzylamino-2-phenyl-2H-pyrazolo[4,3-d]pyrimidine], the Ki on hA1 AR amounted to 25 ± 3 nM; at hA2A AR it was 123 ± 11 nM; at hA3 AR, 28 ± 3 nM. Moreover, the inhibition at 1 µM at hA2B AR is 2%.
In the case of `Nc1nc(NCCc2ccccc2)nc2cn(-c3ccccc3)nc12` [Compound 6, 7-Amino-5-(2-phenylethyl)amino-2-phenyl-2H-pyrazolo[4,3-d]pyrimidine], the Ki on hA1 AR was found to be 11.5 ± 1.2 nM. Moreover, the “Binding experiments I% hA2A” value at hA2A AR is listed as 40%. Also, the inhibition at 1 µM came out at 38% at hA3 AR and 1% at hA2B AR.
On the same counts, the results for `Nc1nc(NCCCc2ccccc2)nc2cn(-c3ccccc3)nc12` [Compound 7, 7-Amino-5-(3-phenylpropyl)-2-phenyl-2H-pyrazolo[4,3-d]pyrimidines] are 785 ± 72 nM, 29%, 24% and 1%.
`Cn1cc2nc(Nc3ccccc3)nc(N)c2n1` [Compound 8, 7-Amino-2-methyl-5-phenylamino-2H-pyrazolo[4,3-d]pyrimidine]: the “Binding experiments I% hA1” value at hA1 AR came to 1%. Moreover, the “Binding experiments I% hA2A” value at hA2A AR is recorded as 4%. Also, the inhibition at 1 µM at hA3 AR and at hA2B AR was 1% in each case.
For `Cn1cc2nc(NCc3ccccc3)nc(N)c2n1` [Compound 9, 7-Amino-5-benzylamino-2-methyl-2H-pyrazolo[4,3-d]pyrimidine], the “Binding experiments I% hA1” value on hA1 AR is recorded as 9%. The “Binding experiments I% hA2A” value on hA2A AR came to 1%. The inhibition at 1 µM on hA3 AR was 20%; on hA2B AR, 1%.
As for `Nc1nc(NCc2ccccc2)nc2cn(Cc3ccccc3)nc12` [Compound 10, 7-Amino-2-benzyl-5-benzylamino-2H-pyrazolo[4,3-d]pyrimidine], on hA1 AR, the “Binding experiments I% hA1” value was 19%. The “Binding experiments I% hA2A” value on hA2A AR is listed as 1%. The inhibition at 1 µM at hA3 AR and on hA2B AR was 1% each time.
`COc1ccc(CCNc2nc(N)c3nn(-c4ccccc4)cc3n2)cc1` [Compound 11, 7-Amino-5-[2–(4-methoxyphenyl)ethyl]amino-2-phenyl-2H-pyrazolo[4,3-d]pyrimidine]: the Ki at hA1 AR was 153 ± 11 nM. In addition, at hA2A AR, the “Binding experiments I% hA2A” value is given as 26%. The inhibition at 1 µM at hA3 AR is 19%; at hA2B AR, 1%.
With `Nc1nc(NCCc2ccc(O)cc2)nc2cn(-c3ccccc3)nc12` [Compound 12, 7-Amino-5-(4-hydroxyphenethyl)amino-2-phenyl-2H-pyrazolo[4,3-d]pyrimidine], the “Binding experiments I% hA1” value at hA1 AR is listed as 27%. In addition, the Ki on hA2A AR turned out to be 150 ± 14 nM. Moreover, the inhibition at 1 µM on hA3 AR and on hA2B AR was 1% each time.
As to `COc1ccc(CCNc2nc(N)c3nn(-c4ccccc4)cc3n2)cc1OC` [Compound 13, 7-Amino-5-[2-(3,4-dimethoxyphenyl)ethyl]amino-2-phenyl-2H-pyrazolo[4,3-d]pyrimidine], the figures for the Ki at hA1 AR and on hA2A AR were 415 ± 39 nM and 189 ± 18 nM, respectively. The inhibition at 1 µM on hA3 AR is 22%; on hA2B AR, 17%.
On the same counts, the results for `Nc1nc(NCCc2ccc(O)c(O)c2)nc2cn(-c3ccccc3)nc12` [Compound 14, 7-Amino-5-(3,4-dihydroxyphenethyl)amino-2-phenyl-2H-pyrazolo[4,3-d]pyrimidine] are 71 ± 6 nM, 238 ± 24 nM, 3% and 1%.
For `Nc1nc(N2CCN(c3ccccc3)CC2)nc2cn(-c3ccccc3)nc12` [Compound 15, 7-Amino-2-phenyl-5-(4-phenylpiperazin-1-yl)-2H-pyrazolo[4,3-d]pyrimidine], the Ki at hA1 AR is 647 ± 53 nM. In addition, the “Binding experiments I% hA2A” value at hA2A AR came out at 20%. Further, the inhibition on hA3 AR turned out to be 20%. In addition, the inhibition at 1 µM on hA2B AR worked out at 1%.
`Nc1nc(N2CCN(Cc3ccccc3)CC2)nc2cn(-c3ccccc3)nc12` [Compound 16, 7-Amino-5-(4-benzylpiperazin-1-yl)-2-phenyl-2H-pyrazolo[4,3-d]pyrimidine]: on hA1 AR, the Ki turned out to be 162 ± 14 nM. Further, the “Binding experiments I% hA2A” value at hA2A AR is on record as 1%. In addition, the inhibition at hA3 AR stood at 1%. Moreover, the inhibition at 1 µM at hA2B AR was 1%.
